Data set [1] is described as follows: Induction of HIV1 NL4-3 nucleocapsid protein disassembly expressed in expressed in Escherichia coli BL21 (DE3) using 5'-end fluorescein labeled (TG)25 oligonucleotide after 2 hrs by fluorescence assay. Further details: species or system Human immunodeficiency virus 1.
Data set [2] is described as follows: Cytotoxicity against human C8166 cells. In kind it is cell-based.
The test system of data set [3] is Human immunodeficiency virus 1. As to the kind of experiment: Antiviral activity against HIV1 infected in human C8166 cells assessed as inhibition of viral replication after 2 days by luciferase assay. In kind it is functional, organism-based. To be noted: Human immunodeficiency virus 1, C8166, 48 h.
Data set [4] is described as follows: Inhibition of HIV1 NL4-3 nucleocapsid protein assembly expressed in expressed in Escherichia coli BL21 (DE3) using 5'-end fluorescein labeled (TG)25 oligonucleotide after 2 hrs by fluorescence assay. More on the design: species or system Human immunodeficiency virus 1.
The nature of data set [5]: Permeability across human Caco2 cells. In kind it is ADME, cell-based. To be noted: Caco-2, read-out: permeability. Background: Caco-2 cells form a polarised layer with tight junctions and transporters.
Data set [6] in a line: Half life in human liver microsomes. In kind it is ADME, Microsome.
The target in data set [7] is Cytochrome P450 2D6 (Homo sapiens, UniProt P10635). The data set can be described thus: Inhibition of CYP2D6 (unknown origin). In kind it is ADME.
Cytochrome P450 2D6, sequence (P10635 whole entry): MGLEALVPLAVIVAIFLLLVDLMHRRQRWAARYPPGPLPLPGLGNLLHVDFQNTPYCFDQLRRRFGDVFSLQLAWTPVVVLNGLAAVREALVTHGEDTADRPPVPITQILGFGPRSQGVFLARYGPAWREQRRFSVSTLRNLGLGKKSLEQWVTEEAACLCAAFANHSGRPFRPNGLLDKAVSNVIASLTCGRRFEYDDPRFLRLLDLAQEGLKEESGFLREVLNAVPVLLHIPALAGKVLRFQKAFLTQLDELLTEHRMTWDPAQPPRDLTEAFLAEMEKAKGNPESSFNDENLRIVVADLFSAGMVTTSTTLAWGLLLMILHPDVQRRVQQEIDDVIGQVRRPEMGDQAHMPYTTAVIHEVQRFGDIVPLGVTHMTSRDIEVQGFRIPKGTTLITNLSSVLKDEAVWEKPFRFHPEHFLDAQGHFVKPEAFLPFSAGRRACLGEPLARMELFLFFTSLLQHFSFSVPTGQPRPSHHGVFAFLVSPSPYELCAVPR
For data set [8], the target named is Cytochrome P450 3A4 (Homo sapiens, UniProt P08684). The data set can be described thus: Inhibition of CYP3A4 (unknown origin). In kind it is ADME.
Cytochrome P450 3A4, sequence (P08684 whole entry): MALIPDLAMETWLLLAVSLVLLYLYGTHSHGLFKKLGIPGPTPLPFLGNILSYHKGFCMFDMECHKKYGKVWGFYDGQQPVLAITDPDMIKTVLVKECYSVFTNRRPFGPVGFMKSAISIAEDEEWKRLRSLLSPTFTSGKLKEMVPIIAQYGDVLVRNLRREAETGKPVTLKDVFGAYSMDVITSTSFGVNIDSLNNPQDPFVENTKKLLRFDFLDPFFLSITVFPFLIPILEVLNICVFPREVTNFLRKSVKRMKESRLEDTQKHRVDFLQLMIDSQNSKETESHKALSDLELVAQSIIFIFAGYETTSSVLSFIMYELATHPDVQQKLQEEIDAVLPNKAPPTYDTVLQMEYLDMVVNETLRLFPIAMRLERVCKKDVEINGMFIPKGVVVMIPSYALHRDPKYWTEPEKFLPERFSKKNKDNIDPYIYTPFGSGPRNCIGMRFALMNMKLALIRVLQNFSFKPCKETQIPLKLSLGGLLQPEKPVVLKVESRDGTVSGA
Data set [9] in a line: Half life in rat liver microsomes. In kind it is ADME, Microsome. For orientation: Microsomes from liver hold many membrane-bound enzymes, among them those of drug oxidation.
Data set [10] can be described thus: Volume of distribution at steady state in iv dosed rat. It counts as ADME, organism-based. The note with it: in vivo, read-out: Vdss.
Data set [11] in a line: Half life in iv dosed rat. It counts as ADME, organism-based. To be noted: in vivo.
Data set [12] has as its system Rattus norvegicus. The data set can be described thus: Total clearance in iv dosed rat relative to liver blood perfusion rate. In kind it is ADME, organism-based. To be noted: in vivo.

A value given as a limit tells only on which side of the number the result lay.

`CN1C(=O)C(c2ccccc2)C(=O)N(c2ccccc2)c2cc(C(F)(F)F)ccc21` (stereo not given): the half-maximal inhibitory concentration (IC50) in data set [1] came out at 680 nM.
`CCN1C(=O)C(c2ccc(-c3cnco3)cc2)C(=O)N(c2ccccc2)c2cc(C(F)(F)F)ccc21` (stereo not given) came in with a half-maximal cytotoxic concentration (CC50) in [2] greater than 7000 nM. Besides, the EC50 in [3] is 1100 nM. In addition, the half-inhibitory concentration (IC50) in [4] was determined as 760 nM; in data set [1], 470 nM.
For `CCN1C(=O)C(c2ccccc2)C(=O)N(c2ccccc2)c2cc(C(F)(F)F)ccc21` (stereo not given), the concentration for half-maximal inhibition (IC50) in [4] came to 730 nM; in data set [1], 480 nM.
Turning to `COc1ccccc1C1C(=O)N(C)c2ccc(C(F)(F)F)cc2N(c2ccccc2)C1=O` (stereo not given), in [3], the EC50 was 2700 nM. This molecule also came in with a half-inhibitory concentration (IC50) in [4] of 710 nM.
In the same order, the values of `COc1cccc(C2C(=O)N(C)c3ccc(C(F)(F)F)cc3N(c3ccccc3)C2=O)c1` (stereo not given) are 1200 nM and 550 nM.
For the molecule `COc1ccc(C2C(=O)N(C)c3ccc(C(F)(F)F)cc3N(c3ccccc3)C2=O)cc1` (stereo not given), the EC50 in [3] turned out to be 3200 nM. Also, the IC50 in data set [4] amounted to 1100 nM.
As for `CCN1C(=O)C(c2ccc(O)cc2)C(=O)N(c2ccccc2)c2cc(C(F)(F)F)ccc21` (stereo not given), the concentration giving a half-maximal response (EC50) in data set [3] worked out at 1000 nM. In addition, the 50% inhibitory concentration (IC50) was found to be 400 nM in data set [4] and 180 nM in [1].
Consider `CCN1C(=O)C(c2ccc(O)c(OC)c2)C(=O)N(c2ccccc2)c2cc(C(F)(F)F)ccc21` (stereo not given), for which the CC50 in data set [2] worked out at 42000 nM. For the same molecule, in data set [3], the EC50 is 530 nM. Besides, the results for the IC50 in data set [4] and in data set [1] were 590 nM and 110 nM, respectively.
The molecule `CCN1C(=O)C(c2ccccc2-c2ccncc2)C(=O)N(c2ccccc2)c2cc(C(F)(F)F)ccc21` (stereo not given) had a concentration for half-maximal inhibition (IC50) in [4] greater than 7200 nM.
The molecule `CCN1C(=O)C(c2cccc(-c3ccncc3)c2)C(=O)N(c2ccccc2)c2cc(C(F)(F)F)ccc21` (stereo not given) had a CC50 in [2] of 17000 nM. Moreover, the EC50 in data set [3] was 790 nM. Further, the IC50 amounted to 530 nM in data set [4] and 190 nM in data set [1].
`CCN1C(=O)C(c2ccc(-c3ccncc3)cc2)C(=O)N(c2ccccc2)c2cc(C(F)(F)F)ccc21` (stereo not given) gave a CC50 in data set [2] of 15000 nM. The half-maximal effective concentration (EC50) in data set [3] amounted to 570 nM. Also, the concentration for half-maximal inhibition (IC50) in [4] amounted to 390 nM; in data set [1], 210 nM.
With `CCN1C(=O)C(c2cccc(-c3cccnc3)c2)C(=O)N(c2ccccc2)c2cc(C(F)(F)F)ccc21` (stereo not given), the midpoint of cytotoxicity in data set [2], the CC50, lay at 20000 nM. In addition, the EC50 in data set [3] was 1000 nM. This molecule also came in with an IC50 in [4] of 480 nM.
In [2], `CCN1C(=O)C(c2cccc(-c3cnn(C)c3)c2)C(=O)N(c2ccccc2)c2cc(C(F)(F)F)ccc21` (stereo not given) showed a CC50 of 20000 nM. For the same molecule, in [3], the 50% effective concentration (EC50) worked out at 710 nM. Besides, the IC50 was 630 nM in data set [4] and 130 nM in data set [1].
In data set [2], `CCN1C(=O)C(c2cccc(-c3ccnn3C)c2)C(=O)N(c2ccccc2)c2cc(C(F)(F)F)ccc21` (stereo not given) returned a 50% cytotoxic concentration (CC50) of 30000 nM. Moreover, the concentration giving a half-maximal response (EC50) in [3] was 990 nM. The results for the IC50 in [4] and in data set [1] were 670 nM and 300 nM, respectively.
In the same order, the values of `CCN1C(=O)C(c2ccc(-c3cccnc3)cc2)C(=O)N(c2ccccc2)c2cc(C(F)(F)F)ccc21` (stereo not given) are 7000 nM, 400 nM, 400 nM and 320 nM.
Molecule `CCN1C(=O)C(c2ccc(-c3cnc(OC)nc3)cc2)C(=O)N(c2ccccc2)c2cc(C(F)(F)F)ccc21` (stereo not given) displayed a CC50 in [2] greater than 20000 nM. In addition, the concentration for a half-maximal effect (EC50) in data set [3] was found to be 620 nM. In addition, the IC50 in [4] was 450 nM; in data set [1] it was 270 nM.
As to `CCN1C(=O)C(c2cc(-c3cnn(C)c3)ccc2O)C(=O)N(c2ccccc2)c2cc(C(F)(F)F)ccc21` (stereo not given), the Papp in data set [5] came out at 4.3 ×10⁻⁶ cm/s. Further, the half-life in data set [6] came to 2.5 h. In addition, the EC50 in data set [3] worked out at 180 nM. The molecule further showed an IC50 in data set [1] of 170 nM. The figures for the INH in [7] and in [8] were greater than 30 µM and 1.7 µM, respectively.
As for `CCN1C(=O)C(c2ccc(O)c(-c3cnn(C)c3)c2)C(=O)N(c2ccccc2)c2cc(C(F)(F)F)ccc21` (stereo not given), the Papp in data set [5] was less than 0.1 ×10⁻⁶ cm/s. In data set [6], the half-life was determined as 2 h. For the same molecule, in data set [3], the EC50 is 190 nM. Also, in data set [1], the IC50 was 120 nM. Besides, the INH in data set [7] was greater than 30 µM; in [8], 5.7 µM.
As to `CCN1C(=O)C(c2cc(-c3cnn(C)c3)c(O)cc2O)C(=O)N(c2ccccc2)c2cc(C(F)(F)F)ccc21` (stereo not given), the half-life in [9] was determined as 0.183 h; in data set [6], 1.85 h. Besides, the Papp in data set [5] is 7.7 ×10⁻⁶ cm/s. The half-maximal effective concentration (EC50) in [3] came to 140 nM. Besides, the half-maximal inhibitory concentration (IC50) in [1] amounted to 100 nM. For the same molecule, the INH came to 13 µM in data set [7] and 4.5 µM in data set [8].
`CCN1C(=O)C(c2cc(-c3cn[nH]c3)c(O)cc2O)C(=O)N(c2ccccc2)c2cc(C(F)(F)F)ccc21` (stereo not given): the half-life in data set [9] is 0.25 h; in data set [6], greater than 5 h. Also, the Papp in data set [5] was less than 0.1 ×10⁻⁶ cm/s. In addition, the EC50 in [3] amounted to 130 nM. For the same molecule, in data set [1], the IC50 was 50 nM. Further, the INH in data set [7] is 8.9 µM; in data set [8], 4.8 µM.
In the case of `CCCn1cc(-c2cc(C3C(=O)N(CC)c4ccc(C(F)(F)F)cc4N(c4ccccc4)C3=O)cc(OC)c2O)cn1` (stereo not given), the values for the half-life in data set [9], in data set [11] and in data set [6] were 1.12 h, 4.8 h and 1.43 h, respectively. Moreover, in [10], the Vd was determined as 15 L/kg. The Papp in [5] was 9.9 ×10⁻⁶ cm/s. In data set [3], the EC50 came to 70 nM. Further, the CL in [12] came out at 50%. The molecule also yielded an IC50 in data set [1] of 160 nM. Further, the values for the INH in data set [7] and in data set [8] were greater than 30 µM and 3.6 µM, respectively.
Consider `CCN1C(=O)N(c2ccc(O)c(-c3cnn(C)c3)c2)C(=O)N(c2ccccc2)c2cc(C(F)(F)F)ccc21`, for which the EC50 in data set [3] stood at 240 nM. This molecule yielded an IC50 in data set [1] of 120 nM.
Regarding `CCN1C(=O)C2(CCc3cc(O)c(-c4cnn(C)c4)cc32)C(=O)N(c2ccccc2)c2cc(C(F)(F)F)ccc21` (stereo not given), in data set [3], the EC50 came to 300 nM. In data set [1], this molecule came in with a 50% inhibitory concentration (IC50) of 130 nM.
With `CCN1C(=O)C2(CCc3c2ccc(O)c3-c2cnn(C)c2)C(=O)N(c2ccccc2)c2cc(C(F)(F)F)ccc21` (stereo not given), the EC50 in data set [3] amounted to 780 nM. The molecule further gave a half-maximal inhibitory concentration (IC50) in data set [1] of 200 nM.

Usually IC50 stands for the concentration needed to halve the response being measured. A high value points to weaker potency. The CC50 is the concentration that lowers cell viability or growth by half. Read a low CC50 as greater toxicity to the cells. Usually EC50 stands for the concentration giving half of the maximal effect. By half-life is commonly meant how long it takes for the measured level to halve. Low readings indicate rapid decline, high ones slow decline.

These data come from ChEMBL document CHEMBL2385055, “Optimization of a 1,5-dihydrobenzo[b][1,4]diazepine-2,4-dione series of HIV capsid assembly inhibitors 2: structure-activity relationships (SAR) of the C3-phenyl moiety” (Bioorg Med Chem Lett, 2013).
